Results on 14 molecules are retold here after patent publication EP4361157A1, “FUSED TETRACYCLIC COMPOUND, PREPARATION METHOD THEREFOR AND APPLICATION THEREOF IN MEDICINE” (Jiangsu Hengrui Pharmaceuticals Co., Ltd., priority 2021, dated 2022).

The term IC50 denotes the concentration at which inhibition is half-maximal.

The subject of one assay is AGS cells. Description: Inhibition of ERK phosphorylation of AGS cells (HTRF method). Format: cell-based. Particulars: phosphorylated ERK/total ERK ratio, 1 h incubation. The procedure:
AGS cells (Nanjing Cobioer, CBP60476) were cultured in RPMI1640 (Hyclone, SH30809.01) complete medium containing 10% fetal bovine serum. On the first day of the experiment, the AGS cells were seeded into a 96-well plate with complete medium at a density of 40,000 cells/well to form 190 µL of cell suspension per well. The plate was incubated overnight in a cell incubator at 37 °C with 5% CO2.
The next day, 10 µL of serially-diluted test compound prepared from the complete medium was added to each well. The final concentrations of the compound were 9 concentration points obtained by 5-fold serial dilution from 10 µM. A blank control containing 0.5% DMSO was set. The well plate was incubated in a cell incubator at 37 °C with 5% CO2 for 1 h. After completion of incubation, the 96-well cell culture plate was taken out, the medium was removed by pipetting, 200 µL PBS (Shanghai BasalMedia Technologies Co., Ltd., B320) was added to each well, and the cells were washed once. PBS was removed by pipetting, 50 µL of lysis buffer (Cisbio, 64KL1FDF) containing a blocking solution (blocking reagent, Cisbio, 64KB1AAC) was added to each well, and the well plate was lysed on a shaker for 40 min at room temperature with shaking. After lysis, the lysate was pipetted and mixed well, 16 µL of lysate was transferred to two HTRF 96-well assay plates (Cisbio, 66PL96100) per well, and then 4 µL of premixed phosphorylated ERK1/2 antibody solution (Cisbio, 64AERPEG) or 4 µL of premixed total ERK1/2 antibody solution (Cisbio, 64NRKPEG) was added to these two plates. The microplate was sealed with a sealing membrane, centrifuged for 1 min in a microplate centrifuge, and incubated overnight at room temperature in the dark. On the third day, the fluorescence values at an excitation wavelength of 337 nm and at emission wavelengths of 665 nm and 620 nm were read using an ENVISION multifunctional microplate reader (PerkinElmer, ENVISION).
Table 1. Inhibitory activity data for ERK phosphorylation of AGS cells
In general terms: In TR-FRET formats the signal depends on donor and acceptor labels being close together.

The test system of the next assay is GP2d cells. Description: Inhibition of 3D proliferation of GP2d cells (CellTiter-Glo 3D). The settings on record: 120 h incubation. Format: cell-based. The procedure:
GP2d cells (Nanjing Cobioer, CBP60010) were cultured in a complete medium, namely DMEM/high glucose medium (Hyclone, SH30243.01) containing 10% fetal bovine serum (Corning, 35-076-CV). On the first day of the experiment, GP2d cells were seeded into a 96-well low adsorption plate (Corning, CLS7007-24EA) with complete medium at a density of 1,000 cells/well to form 90 µL of cell suspension per well. The plate was centrifuged at 2,000 rpm for 5 min at room temperature and then incubated overnight in a cell incubator at 37 °C with 5% CO2.
The next day, 10 µL of serially-diluted test compound prepared from the complete medium was added to each well. The final concentrations of the compound of GP2d cells were 9 concentration points obtained by 3-fold serial dilution from 1 µM, and the final concentrations of the compound of AGS cells were 9 concentration points obtained by 3-fold serial dilution from 10 µM. A blank control containing 0.5% DMSO was set. The well plate was incubated in a cell incubator at 37 °C with 5% CO2 for 120 h. On the seventh day, the 96-well cell culture plate was taken out, 50 µL CellTiter-Glo® 3D reagent (Promega, G9682) was added into each well, the plate was shaken at room temperature for 25 min, pipetted and mixed well, 50 µL of the solution was transferred into a white impermeable 96-well plate (PE, 6005290), and the luminescence signal values were read using a multifunctional microplate reader (PerkinElmer, ENVISION).
Table 2. Inhibitory activity data for 3D proliferation of AGS and GP2d cells
(In ATP-based viability assays light output follows the ATP content of the culture.)

Turning to `CCc1cccc2cc(O)cc(-c3cc4nc(OC[C@@]56CCCN5C[C@H](F)C6)nc5c4c(n3)OCC3C4CCC(CN53)N4)c12` (mixture of isomers) [Diastereomeric (1:1) mixture of 2-p1 and 2-p2], the half-inhibitory concentration (IC50) in the assay with AGS cells (Homo sapiens, AGS) came to 0.0066 µM; with GP2d cells, 0.0199 µM. Consider `Oc1cc(-c2cc3nc(OC[C@@]45CCCN4C[C@H](F)C5)nc4c3c(n2)OCC2C3CCC(CN42)N3)c2c(F)cccc2c1` (single isomer, unassigned) [Diastereomeric (1:1) mixture of 1-p1 and 1-p2], for which the IC50 in the assay with AGS cells was found to be 0.0941 µM. Still for that read-out and setting: for `CCc1cccc2cc(O)cc(-c3nc4c5c(nc(OC[C@@]67CCCN6C[C@H](F)C7)nc5c3F)N3CC5CCC(N5)C3CO4)c12` (single isomer, unassigned) [Diastereomeric (1:1) mixture of 4-p1 and 4-p2] the value was 0.00135 µM.

Consider `CCc1cccc2cc(O)cc(-c3cc4c5c(nc(OC[C@@]67CCCN6C[C@H](F)C7)nc5c3F)N3CC5CCC(N5)C3CO4)c12` (single isomer, unassigned) [Diastereomeric (1:1) mixture of 11-p1 and 11-p2], for which the IC50 in the assay on AGS cells was 0.0156 µM; with GP2d cells, 0.0625 µM. Turning to `CCc1cccc2cc(O)cc(-c3nc4c5c(nc(OC[C@@]67CCCN6C[C@H](F)C7)nc5c3F)N3C[C@@H]5CC[C@@H](N5)[C@@H]3CO4)c12` [Example 4-p2, 5-Ethyl-4-((5aR,6R,9S)-1-fluoro-12-(((2R,7aS)-2-fluorotetrahydro-1H-pyrrolizin-7a(5H )-yl)methoxy)-5a,6,7,8,9,10-hexahydro-5H-4-oxa-3,10a,11,13,14-pentaaza-6,9-methanonaphtho[1,8-ab]heptalen-2-yl)naphthalen-2-ol], the half-maximal inhibitory concentration (IC50) in the assay with AGS cells (Homo sapiens, AGS) turned out to be 0.0865 µM. Consider `CCc1c(F)ccc2cc(O)cc(-c3nc4c5c(nc(OC[C@@]67CCCN6C[C@H](F)C7)nc5c3F)N3C[C@@H]5CC[C@@H](N5)[C@@H]3CO4)c12` [Example 9-p2, 5-Ethyl-6-fluoro-4-((5aR,6R,9S)-1-fluoro-12-(((2R,7aS)-2-fluorotetrahydro-1H-pyrrolizin-7a(5H)-yl)methoxy)-5a,6,7,8,9,10-hexahydro-5H-4-oxa-3,10a,11,13,14-pentaaza-6,9-methanonaphtho[1,8-ab]heptalen-2-yl)naphthalen-2-ol], for which the IC50 in the assay with AGS cells (Homo sapiens, AGS) came out at 0.0604 µM.

Consider `Oc1cc(Cl)c(C(F)(F)F)c(-c2nc3c4c(nc(OC[C@@]56CCCN5C[C@H](F)C6)nc4c2F)N2C[C@H]4CC[C@H](N4)[C@H]2CO3)c1` [Example 14-p1, 3-Chloro-5-((5aS,6S,9R)-1-fluoro-12-(((2R,7aS)-2-fluorotetrahydro-1H-pyrrolizin-7a(5 H)-yl)methoxy)-5a,6,7,8,9,10-hexahydro-5H-4-oxa-3,10a,11,13,14-pentaaza-6,9-methanonaphtho[1,8-ab]heptalen-2-yl)-4-(trifluoromethyl)phenol], for which the concentration for half-maximal inhibition (IC50) in the assay with AGS cells (Homo sapiens, AGS) turned out to be 0.0202 µM.

Regarding `CCc1c(F)ccc2cc(O)cc(-c3nc4c5c(nc(OCC6(CN7CCC[C@@H]7CO)CC6)nc5c3F)N3C[C@H]5CC[C@H](N5)[C@H]3CO4)c12` [Example 15, 5-Ethyl-6-fluoro-4-((5aS,6S,9R)-1-fluoro-12-((1-(((R)-2-(hydroxymethyl)pyrrolidin-1-yl)methyl)cyclopropyl)methoxy)-5a,6,7,8,9,10-hexahydro-5H-4-oxa-3,10a,11,13,14-pentaaza-6,9-methanonaphtho[1,8-ab]heptalen-2-yl)naphthalen-2-ol], the IC50 with AGS cells (Homo sapiens, AGS) came out at 0.0134 µM; with GP2d cells, 0.0072 µM. `CCc1c(F)ccc2cc(O)cc(-c3nc4c5c(nc(OCC6(CN7CC=C[C@@H]7CO)CC6)nc5c3F)N3C[C@H]5CC[C@H](N5)[C@H]3CO4)c12` [Example 16, 5-Ethyl-6-fluoro-4-((5aS,6S,9R)-1-fluoro-12-((1-(((R)-2-(hydroxymethyl)-2,5-dihydro-1 H-pyrrol-1-yl)methyl)cyclopropyl)methoxy)-5a,6,7,8,9,10-hexahydro-5H-4-oxa-3,10a, 1 1,13,14-pentaaza-6,9-methanonaphtho[1,8-ab]heptalen-2-yl)naphthalen-2-ol]: the half-maximal inhibitory concentration (IC50) in the assay on AGS cells (Homo sapiens, AGS) was determined as 0.0116 µM; in the assay on GP2d cells, 0.0101 µM. The matching figures for `CCc1c(F)ccc2cc(O)cc(-c3nc4c5c(nc(OCC6(CN7CC=C[C@H]7CO)CC6)nc5c3F)N3C[C@H]5CC[C@H](N5)[C@H]3CO4)c12` [Example 18, 5-Ethyl-6-fluoro-4-((5aS,6S,9R)-1-fluoro-12-((1-(((S)-2-(hydroxymethyl)-2,5-dihydro-1 H-pyrrol-1-yl)methyl)cyclopropyl)methoxy)-5a,6,7,8,9,10-hexahydro-5H-4-oxa-3,10a, 1 1,13,14-pentaaza-6,9-methanonaphtho[1,8-ab]heptalen-2-yl)naphthalen-2-ol]: 0.0105 µM and 0.0393 µM. On the same counts, the results for `CCc1c(F)ccc2cc(O)cc(-c3nc4c5c(nc(OCC6(CN7C[C@@H]8C[C@@H]8[C@@H]7CO)CC6)nc5c3F)N3C[C@H]5CC[C@H](N5)[C@H]3CO4)c12` [Example 19, 5 -Ethyl-6-fluoro-4-((5aS,6S,9R)-1-fluoro-12-((1-(((1S,2R,5R)-2-(hydroxymethyl)-3-azabicyclo[3.1.0]hex-3-yl)methyl)cyclopropyl)methoxy)-5a,6,7,8,9,10-hexahydro-5H-4-oxa-3,10a,11,13,14-pentaaza-6,9-methanonaphtho[1,8-ab]heptalen-2-yl)naphthalen-2-ol] are 0.0311 µM and 0.0289 µM.

With `CCc1c(F)ccc2cc(O)cc(-c3nc4c5c(nc(OCC6(CN7C[C@@H]8C[C@@H]8[C@H]7CO)CC6)nc5c3F)N3C[C@H]5CC[C@H](N5)[C@H]3CO4)c12` [Example 20, 5 -Ethyl-6-fluoro-4-((5aS,6S,9R)-1-fluoro-12-((1-(((1S,2S,5R)-2-(hydroxymethyl)-3-azabicyclo[3.1.0]hex-3-yl)methyl)cyclopropyl)methoxy)-5a,6,7,8,9,10-hexahydro-5H-4-oxa-3,10a,11,13,14-pentaaza-6,9-methanonaphtho[1,8-ab]heptalen-2-yl)naphthalen-2-ol], the concentration for half-maximal inhibition (IC50) with AGS cells (Homo sapiens, AGS) amounted to 0.014 µM; in the assay on GP2d cells it was 0.0088 µM. For the molecule `CCc1c(F)ccc2cc(O)cc(-c3nc4c5c(nc(OCC6(CN7C[C@H]8C[C@H]8[C@@H]7CO)CC6)nc5c3F)N3C[C@H]5CC[C@H](N5)[C@H]3CO4)c12` [Example 21, 5 -Ethyl-6-fluoro-4-((5aS,6S,9R)-1-fluoro-12-((1-(((1R,2R,5S)-2-(hydroxymethyl)-3-azabicyclo[3.1.0]hex-3-yl)methyl)cyclopropyl)methoxy)-5a,6,7,8,9,10-hexahydro-5H-4-oxa-3,10a,11,13,14-pentaaza-6,9-methanonaphtho[1,8-ab]heptalen-2-yl)naphthalen-2-ol], the IC50 is 0.0081 µM in the assay on AGS cells (Homo sapiens, AGS) and 0.0147 µM in the assay with GP2d cells.

As to `CCc1c(F)ccc2cc(O)cc(-c3nc4c5c(nc(OCC6(CN7CCC[C@H]7COC(=O)N(C)C)CC6)nc5c3F)N3C[C@H]5CC[C@H](N5)[C@H]3CO4)c12` [Example 25, ((S)-1-((1-((((5aS,6S,9R)-2-(8-ethyl-7-fluoro-3-hydroxynaphthalen-1-yl)-1-fluoro-5a,6,7,8,9,10-hexahydro-5H-4-oxa-3,10a,11,13,14-pentaaza-6,9-methanonaphtho[1,8-ab]heptalen-12-yl)oxy)methyl)cyclopropyl)methyl)pyrrolidin-2-yl)methyl dimethylcarbamate], the IC50 in the assay on AGS cells (Homo sapiens, AGS) is 0.0235 µM; with GP2d cells, 0.0485 µM.
